Where two headings read alike, the source gives them in different places. Values belong to the molecule of their own block, whether it stands above or below them.
Tests used:
vitamin D receptor (VDR) = biological target: T1, vitamin D receptor (VDR) (Homo sapiens, UniProt P11473); assay: Vitamin D-dependent transcriptional activation: growth hormone production in COS-1 cells co-transfected with VDR plasmid and VDRE-GH plasmid; type: cell-based; conditions: for Total GH Production: averages of duplicate determinations
T1 sequence (P11473 1-427): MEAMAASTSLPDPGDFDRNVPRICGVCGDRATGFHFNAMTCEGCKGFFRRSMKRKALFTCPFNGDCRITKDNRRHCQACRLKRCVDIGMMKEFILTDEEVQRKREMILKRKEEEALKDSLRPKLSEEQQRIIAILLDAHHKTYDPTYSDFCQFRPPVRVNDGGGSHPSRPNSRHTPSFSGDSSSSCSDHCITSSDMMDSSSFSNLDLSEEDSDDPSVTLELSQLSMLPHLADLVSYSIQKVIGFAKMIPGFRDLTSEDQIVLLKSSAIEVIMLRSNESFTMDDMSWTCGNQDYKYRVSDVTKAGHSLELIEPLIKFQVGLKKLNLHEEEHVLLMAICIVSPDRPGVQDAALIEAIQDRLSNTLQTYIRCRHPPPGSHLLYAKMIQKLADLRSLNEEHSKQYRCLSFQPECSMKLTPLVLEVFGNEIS
Procedure: The biological activity in vitro of chemically synthesized 1α,24(S)-(OH)2 D2 and 1α,24(R)-(OH)2 D2 was measured using a vitamin D-dependent transcriptional activation model system in which a vitamin D receptor (VDR)-expressing plasmid pSG5-hVDR1/3and a plasmid p(CT4)^4 TKGH containing a Growth Hormone (GH)-gene, under the control of a vitamin D-responsive element (VDRE) were co-transfected into Green monkey kidney, COS-1 cells. DNA's for these two vectors were supplied by Dr. Mark Haussler, Department of Biochemistry, University of Arizona, Tucson, Ariz.
Tranfected cells were incubated with vitamin D metabolites and growth hormone production was measured.

[1] = test system: 1,25-(OH)2 D3 receptor site; conditions: Ishizuka et al., Steroids 1981, 1982; cited from earlier work
Hep 3B cells = assay: Metabolite production in Hep 3B cells incubated with 1α-OH-D2; type: in vitro ADME, human; conditions: Experiment 2; substrate 1α-OH-D2 10 μM; photodiode array spectrophotometry
Procedure: Substantially pure 1α-(OH)D2 was obtained from Bone Care International, Inc. of Madison, Wis. The 1α-(OH)D2 was cultured for 48 hours with cells derived from a human hepatoma, Hep 3B, in medium devoid of fetal calf serum using known methods in the art.
Lipid extracts of the combined medium and cells were generated by known methods in the art and were subjected to high pressure liquid chromatography (HPLC) on Zorbax-S1L developed with hexane/isopropanol/methanol (91:7:2). The putative 1α,24(?)-(OH)2 D2 metabolite eluted between the parent 1α-(OH)D2 and standard 1α,25-(OH)2 D2 (also obtained from Bone Care International, Inc. of Madison, Wis.). (As used herein, the term "1α,24(?)-(OH)2 D2 " is meant to indicate that the epimeric form has not been identified.) The 1α,24(?)-(OH)2 D2 was further purified by this HPLC system before the metabolite's identification was undertaken using mass spectrometry analysis.
Hep 3B cells were incubated with 1α-OH-D2, as described above, at final concentrations of 1, 10, or 100 nM (Experiment 1), and 1 or 10 μM (Experiment 2) and 1α,24(S)-(OH)2 D2 was extracted and purified. The 1α,24(S)-(OH)2 D2 and 1α,25-(OH)2 D2 metabolites were quantitated by recovered radiolabel (Experiment 1) or by photodiode array spectrophotometry (Experiment 2).

[2] = test system: human osteoporotic patients; conditions: dosages of 2.0 μg/day or higher; cited from earlier work
[3] = type: in vivo, rat
Procedure: Vitamin D2 or 24-OH-D2 was administered (either oral or intraperitoneal supplementation) to vitamin D-deficient rats. Lipid extracts of the plasma were prepared and the metabolites purified by the method of Horst et al. (Horst, R. L., Koszewski, N. J. and Reinhardt, T. A., Biochem., 29:578-82 (1990)) described below for synthesyzing standard biological 1α,24-(OH)2 D2.
Standard biological 1α,24-(OH)2 D2 was synthesized in vitro from 24-OH-D2 by incubating 10 μg of 24-OH-D2 in flask containing 5 ml of 20% kidney homogenates made from vitamin D-deficient chicks. The product of this reaction was isolated by HPLC and identified by mass spectrometry.

[4] = oral or intraperitoneal supplementation, vitamin D-deficient rats, HPLC

Total GH Production (vitamin D receptor (VDR); inducer 10^-7 molar): 1300 ng/mL | Total GH Production (vitamin D receptor (VDR); inducer 10^-8 molar): 1100 ng/mL | Net vitamin D-inducible GH-production (vitamin D receptor (VDR); inducer 10^-9 molar): 36 ng/mL | Total GH Production (vitamin D receptor (VDR); inducer 10^-9 molar): 80 ng/mL
Compound: C=C1/C(=C\C=C2/CCC[C@]3(C)[C@@H]([C@H](C)/C=C/[C@](C)(O)C(C)C)CC[C@@H]23)C[C@@H](O)C[C@@H]1O [1α,24(R)-(OH)2 D2, 1α,24(R)-dihydroxy vitamin D2]

Compound: C=C1/C(=C\C=C2/CCC[C@]3(C)[C@@H]([C@H](C)CC[C@@H](O)C(C)C)CC[C@@H]23)C[C@@H](O)C[C@@H]1O [1α,24(R)-(OH)2 D3, 1α,24(R)-dihydroxyvitamin D3]
binding to the 1,25-(OH)2 D3 receptor site compared with 1,25-(OH)2 D3 [1]: more tightly than does 1,25-(OH)2 D3 itself

Rate of Production (Hep 3B cells): 7.4 pmol per 10^6 cells/day
Compound: C=C1/C(=C\C=C2/CCC[C@]3(C)[C@@H]([C@H](C)/C=C/[C@H](C)C(C)(C)O)CC[C@@H]23)C[C@@H](O)C[C@@H]1O [1α,25-(OH)2 D2, 1α,25-dihydroxy vitamin D2, reference compound]

Compound: C=C1/C(=C\C=C2/CCC[C@]3(C)[C@@H]([C@H](C)/C=C/[C@H](C)C(C)C)CC[C@@H]23)C[C@@H](O)C[C@@H]1O [1α-(OH)D2, 1α-hydroxy vitamin D2]
loss of bone mass [2]: will reverse the loss of bone mass

Compound: C=C1CC[C@H](O)C/C1=C/C=C1\CCC[C@]2(C)[C@@H]([C@H](C)/C=C/C(C)(O)C(C)C)CC[C@@H]12 (some centres unmarked) [24-OH-D2, 24-hydroxyvitamin D2]
metabolite found in lipid extracts of plasma ([3]; rat, in vivo): one metabolite isolated co-migrated on HPLC with the standard 1α,24-(OH)2 D2

Total GH Production (vitamin D receptor (VDR); inducer 10^-6 molar): 1100 ng/mL
Compound: C=C1CC[C@H](O)C/C1=C/C=C1\CCC[C@]2(C)[C@@H]([C@H](C)CCCC(C)(C)O)CC[C@@H]12 [25-OH-D3, 25-hydroxy vitamin D3, reference compound]

Compound: C=C1CC[C@H](O)C/C1=C/C=C1\CCC[C@]2(C)[C@@H]([C@H](C)/C=C/[C@H](C)C(C)C)CC[C@@H]12 [vitamin D2, Vitamin D2]
metabolite found in lipid extracts of plasma [3, 4]: one metabolite isolated co-migrated on HPLC with the standard 1α,24-(OH)2 D2

Compound: C=C1CC[C@H](O)C/C1=C/C=C1\CCC[C@]2(C)[C@@H]([C@H](C)CCCC(C)C)CC[C@@H]12 [vitamin D3]
metabolite found in lipid extracts of plasma [3, 4]: no detectable 24-OH-D3

Source: patent US6166000A, “Methods for preparation and use of 1α,24(S)-Dihydroxy vitamin . D.sub2” (priority 1995, dated 2000)
